# Reference: patent US9382549B2, “Glyphosate resistant plants and associated methods” (DOW AGROSCIENCES LLC, priority 2012, dated 2016)
# B1: DGT-31 (v1): Streptomyces EPSP synthase (GENBANK YP_004922608.1) (protein)
# chain: MTVIDIPGSKSVTARALFLAAAADGTTTLLRPLHSDDTEGFTEGLTRLGYAVVREPDRWHIEGRPSGPAAADAEVHCRDGATTARFLPTLAAAAASGTYRFDASAQMRRRPLAPLTEALRTLGVDLRHDGAEGHHPLTIQASGVKGGGLTLDAGESSQYLTALLMLGPLTAEGLRIEVTELVSAPYVEITLAMMRGFGVEVVREGNTFTVPPGGYRATTYAIEPDASTASYFFAAAALTGREVTVPGLGTGALQGDLRFTEVLRRMDADVRTTSDSTTVRSDGRLAGLTVNMRDISDTMPTLAAIAPYASSPVRIEDVANTRVKECDRLEACAQNLRSMGITVRTGPDWIEIHPGTPRPTEIATHGDHRIVMSFAVAGLRTPGMSYDDPGCVRKTFPRFHEEFAAFVERSSAGE
# modifications: DGT-31 protein
# B2: DGT-28 v1: native EPSP synthase of Streptomyces sviceus (SEQ ID NO:1), N-terminal 6×His tag, E. coli expressed (protein, listed as Streptomyces sviceus)
# chain: MRGMPALSLPGSKSITARALFLAAAADGVTTLVRPLRSDDTEGFAEGLVRLGYRVGRTPDTWQVDGRPQGPAVAEADVYCRDGATTARFLPTLAAAGHGTYRFDASPQMRRRPLLPLSRALRDLGVDLRHEEAEGHHPLTVRAAGVEGGEVTLDAGQSSQYLTALLLLGPLTRQGLRIRVTDLVSAPYVEITLAMMRAFGVEVAREGDVFVVPPGGYRATTYAIEPDASTASYFFAAAALTPGAEVTVPGLGTGALQGDLGFVDVLRRMGAEVSVGADATTVRGTGELRGLTANMRDISDTMPTLAAIAPFASAPVRIEDVANTRVKECDRLEACAENLRRLGVRVATGPDWIEIHPGPATGAQVTSYGDHRIVMSFAVTGLRVPGISFDDPGCVRKTFPGFHEAFAELRRGIGS
# modifications: N-terminal 6xHis tag
# What was measured:
# T1 Arabidopsis [1] = assay: T1 Arabidopsis response to postemergence glyphosate, visual % injury (dgt-28, dgt-32, dgt-33, dgt-3, dgt-7); type: in vivo, Arabidopsis thaliana
# Excerpt: Transgenic T1 Arabidopsis plants containing the dgt-28 transgene were sprayed with differing rates of glyphosate. Elevated rates were applied in this study to determine the relative levels of resistance (105, 420, 1,680 or 3,360 g ae/ha). A typical 1× usage rate of glyphosate that will control non-transformed Arabidopsis is 420 g ae/ha. […] The T1 Arabidopsis plants that were used in this study were variable copy number for the dgt-28 transgene. The low copy dgt-28 T1 Arabidopsis plants were self-pollinated and used to produce T2 plants.
# The Arabidopsis T1 transformants were first selected from the background of untransformed seed using a glufosinate selection scheme. Three flats or 30,000 seed were analyzed for each T1 construct. The T1 plants selected above were molecularly characterized and representative plants with variable copy number were subsequently transplanted to individual pots and sprayed with various rates of commercial glyphosate as previously described. The response of these plants is presented in terms of % visual injury 2 weeks after treatment (WAT). […] An arithmetic mean and standard deviation is presented for each construct used for Arabidopsis transformation. The range in individual response is also indicated in the last column for each rate and transformation. Wild-type, non-transformed Arabidopsis (c.v. Columbia) served as a glyphosate sensitive control.
# T1 Arabidopsis [2] = assay: dgt-31, dgt-32, dgt-33 v1 T1 Arabidopsis response to glyphosate, visual % injury 2 WAT; type: in vivo, Arabidopsis thaliana
# Excerpt: T1 plants were sampled and copy number analysis for the dgt-31, dgt-32, and dgt-33 v1 gene were completed. T1 plants were then assigned to various rates of glyphosate so that a range of copies were among each rate. For Arabidopsis, 26.25 g ae/ha glyphosate is an effective dose to distinguish sensitive plants from ones with meaningful levels of resistance. Elevated rates were applied to determine relative levels of resistance (105, 420, 1680, or 3360 g ae/ha).
# All glyphosate herbicide applications were made by track sprayer in a 187 L/ha spray volume. Glyphosate used was of the commercial Durango dimethylamine salt formulation (480 g ae/L, Dow AgroSciences, LLC).
# T1 plants selected above were subsequently transplanted to individual pots and sprayed with various rates of commercial glyphosate. Table 15 compares the response of dgt-31, dgt-32, and dgt-33 v1 and control genes to impart glyphosate resistance to Arabidopsis T1 transformants. Response is presented in terms of % visual injury 2 WAT. […] An arithmetic mean and standard deviation is presented for each treatment. The range in individual response is also indicated in the last column for each rate and transformation. Wild-type non-transformed Arabidopsis (cv. Columbia) served as a glyphosate sensitive control. […]
# [3] = test system: untransformed B104 maize line; assay: Growth inhibition dosage response of maize cells on glyphosate; type: cell-based, Zea mays
# T0 corn = assay: T0 dgt-28 corn postemergence glyphosate tolerance; type: in vivo, Zea mays
# Experimental: Zea mays dgt-28 transformation events (T0) were allowed to acclimate in the greenhouse and were grown until plants had transitioned from tissue culture to greenhouse growing conditions (i.e., 2-4 new, normal looking leaves had emerged from the whorl). Plants were grown at 27° C. under 16 hour light:8 hour dark conditions in the greenhouse. The plants were then treated with commercial formulations of DURANGO DMA™ (containing the herbicide glyphosate) with the addition of 2% w/v ammonium-sulfate. Herbicide applications were made with a track sprayer at a spray volume of 187 L/ha, 50-cm spray height. T0 plants were sprayed with a range of glyphosate from 280-4480 g ae/ha glyphosate, which is capable of significant injury to untransformed corn lines. A lethal dose is defined as the rate that causes >95% injury to the B104 inbred.
# T0 events of dgt-28 linked with TraP4, TraP5, TraP8 and TraP23 were generated by Agrobacterium transformation and were allowed to acclimate under controlled growth chamber conditions until 2-4 new, normal looking leaves had emerged from the whorl. Plants were assigned individual identification numbers and sampled for copy number analyses of both dgt-28 and aad-1. Based on copy number analyses, plants were selected for protein expression analyses. […]
# [4] = test system: T1 wheat, Bobwhite MPB26RH; assay: Wheat detailed phenotypic screen (glyphosate 420-3360 g ai/ha); type: in vivo, Triticum aestivum; details: untransformed donor wheat
# Experimental: Four replicates of 12 T1 seeds per selected event and eight replicates (12 seeds each) of the untransformed donor wheat line Bobwhite MPB26RH were sown in 85 mm pots and grown to the 2-leaf stage under well-watered conditions at 25° C. with supplementary lighting providing a 12 hour photoperiod. The pots were placed in a randomised design to allow environmental effects to be removed during data analysis. At the 2-leaf stage, plant length and number of leaves was recorded for each plant before spraying with glyphosate. The first, second, third and fourth replicate of T1 plants for each selected event and the untransformed donor wheat line were sprayed at a dose rate of 420, 840, 1680 and 3360 g ai/ha, respectively. The fifth, sixth, seventh and eighth replicate of untransformed donor wheat line (total 48 plants) were not sprayed. At 7, 14 and 21 days after spraying, the plants were scored for plant length, number of leaves and phenotypic response to glyphosate using the scoring scale in Table 37. Any morphological abnormalities were also recorded. For scoring, the scorer was “blinded” with regard to plant genotype and spray dose rate to prevent scoring bias. Plants with delayed germination and poor establishment (criteria: plant length <6 cm) at the pre-spray scoring were excluded from subsequent analyses.
# This differentiation was maximal at 21 days and was observed across all glyphosate dose rates. Table 41. To assess the tolerance of the transgenic events to glyphosate at each spray dose rate, null T1 plants (i.e., plants not carrying the transgene) were excluded from subsequent analyses. T1 plants with a response score of less than three at 21 days after spraying were considered to have the null genotype. […]
# [5] = test system: EPSP synthase (DGT enzymes); assay: Steady-state kinetic parameters of DGT enzymes (Km for PEP, kcat/Km); type: biochemical
# Experimental: The enzyme activities of wild-type (WT) and mutant DGTs were measured by inorganic phosphate (Pi) production in a modified procedure described by Lanzetta et al. (1979) Anal. Bioch. […] Assays were performed in 96-well plate format in a total of 50 μL on a Spectra-Max 190 plate reader (Molecular Devices, Sunnyvale, Calif.). Typical assays contained 50 mM HEPES pH 7.5, 150 mM KCl, 2 mM DTT, and 1 mM S3P. […] Assays were initiated by addition of the DGT enzyme at concentrations that varied between 0.01-1 μM. Reactions were terminated by the addition of 235 μL of a 3:1 mixture of malachite green: ammonium molybdate solution. After complete color development (˜1 minute), the absorbance change at 660 nm was recorded and the amount of Pi formed was calculated from a standard curve. Control reactions lacking enzyme were used to correct for background absorbance. […] The data were fitted to the Michaelis-Menten equation which allowed for the determination of Km and Vmax (Equation 3) while IC50 was determined from Equation 4, where y is the relative activity and s is the Hill coefficient. Data were analyzed using GRAFIT™ version 5 software (Erithacus Software Limited, Horley, U.K.).
# [6] = 420 g ai/ha, Replicate 1, 10 plants pre-spray
# [7] = 840 g ai/ha, Replicate 2, 10 plants pre-spray
# [8] = 1680 g ai/ha, Replicate 3, 11 plants pre-spray
# [9] = 3360 g ai/ha, Replicate 4, 10 plants pre-spray
molecule,measurement,setting,value
"O=C(O)CNCP(=O)(O)O [glyphosate, N-(phosphonomethyl) glycine]",typical 1× usage rate of glyphosate that will control non-transformed Arabidopsis,T1 Arabidopsis [1],420 g ae/ha
same,effective dose to distinguish sensitive plants from ones with meaningful levels of resistance,T1 Arabidopsis [2]; Arabidopsis,26.25 g ae/ha
same,glyphosate concentration sufficient to inhibit cell growth,[3],≥ 0.25 mM
same,glyphosate rate controlling non-transformed plants,T0 corn,≥ 280 g ae/ha
same,No. surviving plants at 14 days after spraying,[4]; [6],0
same,No. surviving plants at 21 days after spraying,[4]; [6],0
same,No. surviving plants at 14 days after spraying,[4]; [7],3
same,No. surviving plants at 21 days after spraying,[4]; [7],0
same,No. surviving plants at 14 days after spraying,[4]; [8],0
same,No. surviving plants at 21 days after spraying,[4]; [8],0
same,No. surviving plants at 14 days after spraying,[4]; [9],1
same,No. surviving plants at 21 days after spraying,[4]; [9],0
B1,tolerance to glyphosate,"T1 Arabidopsis [2]; T1 Arabidopsis, DGT-31 with TraP23, DGT-32, DGT-33 with TraP8, TraP14, TraP24",slight herbicide tolerance
B2,catalytic efficiency,[5],132000 M⁻¹ s⁻¹
same,Km,[5]; read-out: KM^PEP,91.6 µM
